Test results reported in US11096985B2, “Antimicrobial peptides, their variants and uses” (priority 2015, dated 2021).
Where a SMILES comes first, the peptide text is derived from it. [ ]: non-standard residue; d: D form.

Assays:
S. aureus COL (MRSA) = assay: Synergistic activity with Ertapenem (4 μg/ml) against MRSA, MIC; format: cell-based, Staphylococcus aureus; conditions: Ertapenem 4 μg/ml; D-form
How it was run: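 Broth microdilution in MH broth with 5.0×10^5 cfu/ml inoculum, 37° C for 20–24 h. MIC was the lowest concentration without visible growth (range 0.125–128 μg/ml). L- and D-form peptides were tested on S. aureus RN4220 and COL (MRSA), alone and with Ertapenem at 4 μg/ml.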

[1] = test system: Staphylococcus aureus (ATCC 25923); format: cell-based; conditions: Peptides 50 μg; Gentamycin 5 μg; diameter including the wells
Method: (§1) The radial diffusion assay (RDA) was carried out as described by Andersen et al. (2010). Briefly, 30 ml of 1/10 Muller-Hinton broth (MHB) supplemented with 1% agarose and 5.0×10^5 CFU/ml S. aureus or E. coli or K. pneumoniae, P. aeruginosa cells was poured into a single-well omnitray (Nunc) and overlaid with a TSP 96-well plate. […] The peptides were also tested against Fusarium oxysporum and Verticillium dahliae, for which 1/3 potato dextrose agarose was used. To test the synergistic effect of peptides, each peptide was mixed in equimolar concentrations. Mix1 (met1-12), Mix2 (met3, 4 and 5), Mix3 (met 8, 9 and 10), Mix 4 (met11, 12) and Mix5 (8, 9, 10, 11, 12) were prepared and tested against E. coli and S. aureus. Gentamicin and vancomycin were included as positive controls for bacteria and amphotericin B was used as the control for fungi.

[2] = test system: Escherichia coli (ATCC 25922); format: cell-based; conditions: Peptides 50 μg; Gentamycin 5 μg; diameter including the wells
Method: as §1

[3] = test system: Klebsiella pneumoniae (ATCC 10031); format: cell-based; conditions: Peptides 50 μg; Gentamycin 5 μg; diameter including the wells
Method: as §1

[4] = test system: Escherichia coli, Staphylococcus aureus, Klebsiella pneumoniae and Pseudomonas aeruginosa; assay: Radial diffusion assay, summary over the bacteria tested; format: cell-based; conditions: Gentamicin 5 μg
Method: The radial diffusion assay (RDA) was carried out as described by Andersen et al. (2010). Briefly, 30 ml of 1/10 Muller-Hinton broth (MHB) supplemented with 1% agarose and 5.0×10^5 CFU/ml S. aureus or E. coli or K. pneumoniae, P. aeruginosa cells was poured into a single-well omnitray (Nunc) and overlaid with a TSP 96-well plate. One hundred μg of each synthesized peptide was tested. The peptides were also tested against Fusarium oxysporum and Verticillium dahliae, for which 1/3 potato dextrose agarose was used. To test the synergistic effect of peptides, each peptide was mixed in equimolar concentrations. Mix1 (met1-12), Mix2 (met3, 4 and 5), Mix3 (met 8, 9 and 10), Mix 4 (met11, 12) and Mix5 (8, 9, 10, 11, 12) were prepared and tested against E. coli and S. aureus. Gentamicin and vancomycin were included as positive controls for bacteria and amphotericin B was used as the control for fungi.

[5] = test system: Staphylococcus aureus (ATCC 25923); format: cell-based
Method: (§2) Minimum inhibition concentrations (MICs) were determined against Escherichia coli (ATCC 25922), Staphylococcus aureus (ATCC 25923), Klebsiella pneumoniae (ATCC 10031) and Pseudomonas aeruginosa (ATCC 27853). Also clinical strains of E. coli, K. pneumoniae, E. cloacae, P. aeruginosa, Serratia marcescens, Proteus mirabilis, S. pneumoniae, Acinetobacter baumannii, A. johnsonii and S. aureus were used for MICs assays. Additionally, clinical strains of yeast including Candida albicans, C. glabrata, C. parapsilosis and C. quillermondiae were used. The susceptibility of these microorganisms to Chain peptides were determined using micro broth dilution assay. Colonies of the respective microorganism from Muller Hinton (MH) agar plates incubated overnight were suspended in MH broth media and final concentration of microorganism was adjusted to 5.0×10^5 cfu/ml. An aliquot of 10 μl of each Chain peptide, or gentamicin, tetracycline as reference antibiotics were added in differing concentrations along with 90 μl of bacterial suspension to 96 well polypropylene plates and incubated at 37° C. for 20 to 24 hours. Concentrations of Chain peptides and reference antibiotics ranged from 0.125 to 128 μg/ml and the MICs were recorded as the lowest concentration with no visual growth of bacteria. Similarly, antifungal MICs were tested in Potato dextrose broth.

[6] = test system: Escherichia coli (ATCC 25922); format: cell-based
Method: as §2

[7] = test system: Pseudomonas aeruginosa (ATCC 27853); format: cell-based
Method: as §2

[8] = test system: Klebsiella pneumoniae (ATCC 10031); format: cell-based
Method: as §2

[9] = test system: Pseudomonas aeruginosa (ATCC 27853); assay: Radial diffusion assay (RDA) against P. aeruginosa; format: cell-based; conditions: Peptides 50 μg; Gentamycin 5 μg; diameter including the wells
Method: as §1

Row | Molecule | MIC against MRSA strains along with Ertapenem, D-peptide (S. aureus COL (MRSA)) [µg/mL] | Inhibition zone, Staphylococcus aureus [1] [mm] | Inhibition zone, Escherichia coli [2] [mm] | Inhibition zone, Klebsiella pneumoniae [3] [mm] | zone of inhibition over the four bacteria [4] | Minimum inhibitory concentration, Staphylococcus aureus (ATCC 25923) [5] [µg/mL] | Minimum inhibitory concentration, Escherichia coli (ATCC 25922) [6] [µg/mL] | Minimum inhibitory concentration, Pseudomonas aeruginosa (ATCC 27853) [7] [µg/mL] | Minimum inhibitory concentration, Klebsiella pneumoniae (ATCC 10031) [8] [µg/mL] | Inhibition zone, Pseudomonas aeruginosa [9] [mm]
1 | CC(C)C[C@@H](NC(=O)[C@@H](CCCCN)NC(=O)[C@@H](CCCCN)NC(=O)[C@@H](Cc1ccccc1)NC(=O)[C@@H](CC(C)C)NC(=O)[C@@H](Cc1c[nH]c2ccccc12)NC(=O)[C@@H](CCCNC(=N)N)NC(=O)[C@@H](Cc1c[nH]c2ccccc12)NC(=O)[C@@H](CCCCN)NC(=O)[C@@H](CCCNC(=N)N)NC(=O)[C@H](N)CCCCN)C(=O)O [Chain310D] (H-[dK][dR][dK][dW][dR][dW][dL][dF][dK][dK][dL]-OH) | 0.03 | – | – | – | – | – | – | – | – | –
2 | Gentamicin [reference compound] | – | 24 | 22 | 22 | 22-24 mm | 0.25 | 1 | 0.25 | 0.25 | 24
